{"source": "patent US10201532B2", "about": "“Compounds and their use” (ALLECRA THERAPEUTICS GMBH, priority 2010, dated 2019)", "key": {"[1]": {"tested_on": "K. pneumoniae UMM3 (KPC2)", "assay": "Synergistic broth micro-dilution MIC", "assay_type": "cell-based, Klebsiella pneumoniae", "conditions": "BLI at 4 μg/mL"}, "[2]": {"tested_on": "KPC-3 expressing E. coli (J53 R6206)", "assay": "microbe, parasite or virus in culture", "assay_type": "cell-based, Escherichia coli", "conditions": "for MIC of Cefadroxil in combination with BLI / MIC of Cefalonium in combination with BLI / MIC of Cefquinome in combination with BLI / MIC of Ceftiofur in combination with BLI: BLI at 4 μg/mL, E. coli J53 R6206; for MIC: Escherichia coli, read-out: MIC of BLI alone", "method": "The β-lactam compound was tested for in vitro antibacterial activities by the broth micro-dilution or agar dilution method as specified in documents published by Clinical and Laboratory Standards Institute (CLSI), USA (formerly NCCLS). Approved standard M7-A7, January 2006, CLSI, Wayne, Pa., USA and M100-S18, January 2008, CLSI, Wayne, Pa., USA.\nIn agar dilution method briefly, stock solutions of the cephalosporins for veterinary use (e.g. 2 mg/mL) was made in water, 0.1M phosphate buffers or appropriate solvents and the solution was serially two fold diluted. Compound-1 was dissolved in water and Tazobactam (comparator BLI) in 0.1M phosphate buffer, pH 6.0 to get a solution of 1 mg/mL. Cephalosporins were screened in a concentration range of 0.5-32 μg/mL. For combination, Tazobactam or the Compound-1 described herein were tested at a fixed concentration of 4 μg/mL along with the cephalosporins concentration ranging from 0.5 to 32 μg/mL. […] The compound of formula (I) and Tazobactam were also tested individually. The bacterial inoculum was prepared by picking 3 to 5 well isolated bacterial colonies with the same morphological appearance from an 18-24 h old culture and adjusting the turbidity of the saline suspension to 0.5 McFarland turbidity standard equivalent to a bacterial population of ˜1×10^8 CFU per mL of suspension. The suspension was diluted 1:10 in saline to get a bacterial population of ˜1×10^7 CFU/mL as inoculum. This bacterial inoculum was inoculated onto the prepared petri dishes by a multipoint inoculator with each inoculum spot containing ˜1×10^4 CFU of the bacterial strain. The inoculated petri dishes were incubated at 35° C. in an ambient atmosphere for 18-20 h."}, "[3]": {"tested_on": "KPC2 K. pneumoniae ATCC BAA 1705", "assay": "Mice systemic infection model", "assay_type": "in vivo", "conditions": "Klebsiella pneumoniae", "method": "Female Swiss Albino mice, weighing 18-22 g were used for all studies. For each dose group, 5 or 6 mice were included. Study protocols were reviewed and approved by Institutional Animal Ethical Committee, Orchid Research Laboratories Limited. Mice were housed in individually ventilated cages provided with food and water ad libitum, throughout the study period. From overnight culture in Brain-Heart Infusion agar medium, challenge inoculum with required bacterial density was prepared in normal saline containing Hog gastric mucin. In studies involved with doripenem, washed bacterial cells was used. Each mouse was infected […] inoculum by intra-peritoneal injection.\nInfected mice were dosed sub-cutaneously, with drug preparations at three different time points post-infection.\nImipenem with BLI combinations: Increasing concentrations of Imipenem as single agent or in combination with fixed concentration of BLIs were used to dose infected mice, sub-cutaneously. In this experiment Imipenem was always administered along with cilastatin. Doripenem with BLI combinations: Increasing concentrations of doripenem as single agent or in combination with fixed concentration of BLIs were used to dose infected mice, sub-cutaneously.\nSurvival of the treated mice were monitored twice a day, up to 7 days post-infection. Efficacy dose 50 (ED50) was calculated by Reed and Muench method (Reed, L. J.; Muench, H. “A simple method of estimating fifty percent endpoints”. The American Journal of Hygiene, 1938, 27: 493-497.)."}, "E. coli BAA-199 (SHV-3)": {"tested_on": "E. coli BAA-199 (SHV-3)", "assay": "MIC of Piperacillin with inhibitor, ESBL isolates", "assay_type": "cell-based, Escherichia coli"}, "[4]": {"tested_on": "P. mirabilis BAA-663 (TEM-89)", "assay": "MIC of Piperacillin with inhibitor, ESBL isolates", "assay_type": "cell-based"}, "E. coli BAA-198 (TEM-26)": {"tested_on": "E. coli BAA-198 (TEM-26)", "assay": "MIC of Piperacillin with inhibitor, ESBL isolates", "assay_type": "cell-based, Escherichia coli"}, "[5]": {"tested_on": "K. pneumoniae 700603 (SHV-18)", "assay": "MIC of Piperacillin with inhibitor, ESBL isolates", "assay_type": "cell-based, Klebsiella pneumoniae"}, "[6]": {"tested_on": "KPC/ESBL producing Enterobacteriaceae", "assay": "Double Disk Synergy Test (Methodology 1)", "assay_type": "cell-based, Klebsiella pneumoniae, Escherichia coli", "conditions": "Compound-1 60 μg disk at 7 & 10 mm from antibiotic disks; FIG. 1", "excerpt": "(§1) In this experiment, Compound-1 is used as a diagnostic reagent for the detection of β-lactamases belonging to the families KPC & ESBL (e.g., SHV18) producing Enterobacteriaceae. A simple set of absorbent paper disks impregnated with antibiotic on agar medium is used for the detection.\n(§2) • 0.5 McFarland of the test organism was inoculated at 1:10 dilution on Muller • Hinton Agar plates • Test organisms: Klebsiella pneumoniae (K.p) ATCC BAA-1705, Klebsiella pneumoniae ATCC 700603, Escherichia coli (E.c) Ecoli233 • Carbapenem (e.g., Imipenem [IPM] 10 μg) and cephalosporin (e.g., Ceftazidime [CAZ] 30 μg) paper disks (7 mm) were placed on the inoculated agar plates • Compound-1 (60 μg) disk was placed at a distance of 7 & 10 mm from the carbapenem and cephalosporin disks. • The presence of expressed carbapenemases or ESBLs was measured as the expansion of Imipenem or Ceftazidime's inhibition zones due to synergy in the presence of Compound-1."}, "E. coli Ecoli233 (KPC3)": {"tested_on": "E. coli Ecoli233 (KPC3)", "assay": "Disk zone of inhibition, antibiotic + Compound-1 on same disk (Methodology 2)", "assay_type": "cell-based, Escherichia coli", "excerpt": "as §1, §2\n(§3) The methodology remains the same as Methodology 1 except the following change • Compound-1 (60 μg) was added on the same disk in combination with a carbapenem (e.g., Imipenem 10 μg) or cephalosporin (e.g., Ceftazidime 30 μg) and placed on the inoculated agar plate. • The presence of the expressed carbapenemases or ESBLs was measured as an increase in Imipenem or Ceftazidime's zone diameter in combination with Compound-1 compared to antibiotic alone. Results"}, "[7]": {"tested_on": "E. coli ATCC 25922 (β-lac-ve)", "assay": "Disk zone of inhibition, antibiotic + Compound-1 on same disk (Methodology 2)", "assay_type": "cell-based, Escherichia coli"}, "[8]": {"tested_on": "K. pneumoniae ATCC BAA-1705 (KPC2)", "assay": "Disk zone of inhibition, antibiotic + Compound-1 on same disk (Methodology 2)", "assay_type": "cell-based, Klebsiella pneumoniae", "excerpt": "as §1, §2, §3"}, "[9]": {"conditions": "BAA1705, 168 h, read-out: ED50, single agent"}, "[10]": {"conditions": "BAA1705, BLI fixed at 64 mg/kg, mice, sub-cutaneous, with cilastatin, read-out: ED50 of Imipenem + BLI"}, "[11]": {"conditions": "Ceftazidime 30 μg + Compound-1 60 μg on same disk"}, "[12]": {"conditions": "Imipenem 10 μg + Compound-1 60 μg on same disk"}}, "note": "Read-outs that look alike come from different tables or passages of the source.", "data": [{"smiles": "C[C@]1(Cn2ccnn2)[C@H](C(=O)O)N2C(=O)C[C@H]2S1(=O)=O", "note": "[Tazobactam]", "values": [{"measurement": "MIC of Imipenem in combination with BLI", "setting": "[1]", "value": 4, "unit": "µg/mL"}, {"measurement": "MIC of Cefadroxil in combination with BLI", "setting": "[2]", "value": ">32", "unit": "µg/mL"}, {"measurement": "MIC of Cefalonium in combination with BLI", "setting": "[2]", "value": 32, "unit": "µg/mL"}, {"measurement": "MIC of Cefquinome in combination with BLI", "setting": "[2]", "value": 8, "unit": "µg/mL"}, {"measurement": "MIC of Ceftiofur in combination with BLI", "setting": "[2]", "value": 2, "unit": "µg/mL"}, {"measurement": "MIC", "setting": "[2]", "value": "> 16", "unit": "µg/mL"}, {"measurement": "ED50", "setting": "[3]; [9]", "value": "> 200", "unit": "mg/kg"}, {"measurement": "ED50", "setting": "[3]; [10]", "value": 4, "unit": "mg/kg"}, {"measurement": "MIC of Piperacillin with inhibitor", "setting": "E. coli BAA-199 (SHV-3); inhibitor at 1 μg/mL", "value": ">128", "unit": "µg/mL"}, {"measurement": "MIC of Piperacillin with inhibitor", "setting": "E. coli BAA-199 (SHV-3); inhibitor at 2 μg/mL", "value": ">128", "unit": "µg/mL"}, {"measurement": "MIC of Piperacillin with inhibitor", "setting": "E. coli BAA-199 (SHV-3); inhibitor at 4 μg/mL", "value": ">128", "unit": "µg/mL"}, {"measurement": "MIC of Piperacillin with inhibitor", "setting": "[4]; inhibitor at 1 μg/mL", "value": 8, "unit": "µg/mL"}, {"measurement": "MIC of Piperacillin with inhibitor", "setting": "[4]; inhibitor at 2 μg/mL", "value": 8, "unit": "µg/mL"}, {"measurement": "MIC of Piperacillin with inhibitor", "setting": "[4]; inhibitor at 4 μg/mL", "value": 4, "unit": "µg/mL"}, {"measurement": "MIC of Piperacillin with inhibitor", "setting": "E. coli BAA-198 (TEM-26); inhibitor at 1 μg/mL", "value": 4, "unit": "µg/mL"}, {"measurement": "MIC of Piperacillin with inhibitor", "setting": "E. coli BAA-198 (TEM-26); inhibitor at 2 μg/mL", "value": 4, "unit": "µg/mL"}, {"measurement": "MIC of Piperacillin with inhibitor", "setting": "E. coli BAA-198 (TEM-26); inhibitor at 4 μg/mL", "value": 4, "unit": "µg/mL"}, {"measurement": "MIC of Piperacillin with inhibitor", "setting": "[5]; inhibitor at 1 μg/mL", "value": 16, "unit": "µg/mL"}, {"measurement": "MIC of Piperacillin with inhibitor", "setting": "[5]; inhibitor at 2 μg/mL", "value": 16, "unit": "µg/mL"}, {"measurement": "MIC of Piperacillin with inhibitor", "setting": "[5]; inhibitor at 4 μg/mL", "value": 16, "unit": "µg/mL"}]}, {"smiles": "C[n+]1ccn(C[C@@]2(C)[C@H](C(=O)[O-])N3C(=O)C[C@H]3S2(=O)=O)n1", "note": "[Compound-1, 1-{[(2S,3S,5R)-2-Carboxy-3-methyl-4,4,7-trioxo-4-thia-1-azabicyclo[3.2.0]hept-3-yl]methyl}-3-methyl-1H-1,2,3-triazol-3-ium]", "values": [{"measurement": "MIC of Imipenem in combination with BLI", "setting": "[1]", "value": 1, "unit": "µg/mL"}, {"measurement": "MIC of Cefadroxil in combination with BLI", "setting": "[2]", "value": ">32", "unit": "µg/mL"}, {"measurement": "MIC of Cefalonium in combination with BLI", "setting": "[2]", "value": 4, "unit": "µg/mL"}, {"measurement": "MIC of Cefquinome in combination with BLI", "setting": "[2]", "value": "<0.5", "unit": "µg/mL"}, {"measurement": "MIC of Ceftiofur in combination with BLI", "setting": "[2]", "value": "<0.5", "unit": "µg/mL"}, {"measurement": "MIC", "setting": "[2]", "value": "> 16", "unit": "µg/mL"}, {"measurement": "ED50", "setting": "[3]; [9]", "value": "> 64", "unit": "mg/kg"}, {"measurement": "ED50", "setting": "[3]; [10]", "value": 2.2, "unit": "mg/kg"}, {"measurement": "Synergy: increase of Imipenem or Ceftazidime zone adjacent to Compound-1 disk", "setting": "[6]", "value": "Synergy was observed"}, {"measurement": "ZOI of CAZ + Compound-1", "setting": "E. coli Ecoli233 (KPC3); [11]", "value": 22.5, "unit": "mm"}, {"measurement": "ZOI of IPM + Compound-1", "setting": "E. coli Ecoli233 (KPC3); [12]", "value": 20, "unit": "mm"}, {"measurement": "ZOI of CAZ + Compound-1", "setting": "[7]; Ceftazidime 30 μg + Compound-1 60 μg on same disk, ATCC 25922", "value": 25, "unit": "mm"}, {"measurement": "ZOI of IPM + Compound-1", "setting": "[7]; Imipenem 10 μg + Compound-1 60 μg on same disk, ATCC 25922", "value": 26.5, "unit": "mm"}, {"measurement": "Zone of inhibition of compound-1 alone", "setting": "[7]; β-lactamase negative strain, FIG. 1 (D)", "value": "does not show any zone of inhibition"}, {"measurement": "ZOI of CAZ + Compound-1", "setting": "[8]; [11]", "value": 18.5, "unit": "mm"}, {"measurement": "ZOI of IPM + Compound-1", "setting": "[8]; [12]", "value": 20, "unit": "mm"}]}]}
